The RepoRT retention time repository

experiment: Agilent ZORBAX 300 SB-C18, 150 × 1 mm, 3.5 µm; A: water + 0.01% heptafluorobutyric acid; B: acetonitrile + 0.01% heptafluorobutyric acid; gradient (min/%B) 0/0 100/90; conditions: stereoisomer not certain

Structure (SMILES)	LC retention time
Nc1ccccn1	6.12 min
O=C(O)c1cccc(C(=O)O)n1	3.12 min
Cc1c(N)cccc1N	6.51 min
CCCCCCCCCCCCCC(N)=O	19.7 min
CCC1(c2ccccc2)C(=O)NC(=O)N(C)C1=O (configuration not stated)	11.3 min
O=C(NCCc1c[nH]c2ccccc12)c1c[nH]c2ccccc12	11.8 min
c1ccc(CC2CCN(Cc3ccccn3)CC2)cc1	10.1 min
CCn1ccc(C(C)C)c1-c1ccccc1	19 min
O=C(NN=Cc1ccco1)c1ccccc1	9.65 min
CN(C)Cc1c(N)cc2ccccc2c1-c1ccccc1	8.82 min
Nc1ccncc1	5.68 min
Cc1ccc(N)cc1	7.62 min
CC(C)CC(NC(=O)CN)C(=O)O (configuration not stated)	7.75 min
Cc1ccc(-c2ccc(CCC(=O)O)n2CC(=O)O)cc1	11.5 min
O=C(O)CC(NCc1ccccc1)C(=O)O (configuration not stated)	6.19 min
O=c1c2ccccc2nc(-c2ccccc2)n1-c1ccccc1	13.8 min
CN(C)c1cccc(C(=O)O)c1	8.69 min
O=C(CNc1cccc2ccccc12)NN=CC=Cc1ccccc1	15.5 min
CC(=O)c1c(-c2ccccc2)[nH]c2ccccc12	13 min
CC(C)(C)c1ccc(-c2cc(C(=O)O)c3c(ccc4ccccc43)n2)cc1	16.4 min
NCCCNCCN	7.42 min
CN(C)CCOC(C)(c1ccccc1)c1ccccn1 (configuration not stated)	8.98 min
C[N+](C)(N)Cc1ccccc1	7.54 min

Structure (SMILES)	LC retention time
Cn1c(=O)c2c(-c3ccccc3)n(Cc3ccccc3)cc2n(C)c1=O	14.3 min
CN(C)C(=O)Oc1cc(OC(=O)N(C)C)cc(C(O)CNC(C)(C)C)c1 (configuration not stated)	9.59 min
CCN(CC)CC(CP(=O)(O)O)P(=O)(O)O (configuration not stated)	1.13 min
NC(=O)c1ccccc1NC(=O)CN1CCCC1	7.36 min
CSC(=N)N	4.66 min
OCc1ccc2cc[nH]c2c1	8.46 min
O=C(c1ccc(-c2ccccc2)cc1)N1CCN(c2ccccc2)CC1	16.5 min
CCCCCCCCCCNC(=S)Nc1ccccc1	19.6 min
CCOC(=O)c1[nH]c(C)c(C(=O)OCc2ccccc2)c1C	15.8 min
CNCc1ccccc1	7.43 min
O=C1CC(Nc2ccc3ccccc3c2)C(=O)N1c1cccc2ccccc12 (configuration not stated)	15.7 min
Cc1nc2ccccc2nc1CSc1cccc2cccnc12	12.8 min
O=C(CCCCCN1C(=O)c2ccccc2C1=O)Nc1cccc(C(=O)O)c1	11.6 min
Cc1ccc(-c2cc(C)c(C)cc2C)nc1	10.6 min
Cc1cc(C)c2c(=O)n(CC(=O)NC(C)CCc3ccccc3)c(=O)n(C)c2n1 (configuration not stated)	14.9 min
NCCCc1ccccn1	6.8 min
c1cncc(-c2cn[nH]c2)c1	6.56 min
Cn1cc(C(=O)O)c2ccccc21	9.81 min
CCn1c2ccccc2c2cc(C=NNC(=O)c3ccc(C)cc3)ccc21	15.7 min
CC(C)(C)c1ccc(NC(=O)NCc2ccco2)cc1	14.5 min
O=C1OCc2cc(-n3cccc3)ccc21	11.8 min
O=C(CN1CCc2ccccc2C1)NC1CCCC1	8.99 min
Cc1nncn1-c1ccccc1	8.5 min

Structure (SMILES)	LC retention time
CCOC(=O)c1c(C)n(C2CCCCC2)c2ccc(OC(C)=O)cc12	17.8 min
NCc1ccccc1CN	7.03 min
Cc1c(N)cc(N)cc1NC(=O)c1ccccc1	8.28 min
CSc1nnc(C)c(C)n1	8.89 min
CCCCCCCCCCCCCCCCCCNC	19 min
Nc1cccc2c1CCC2	8.43 min
C#CCN(CC)CC#C	6.73 min
Cc1ccc(C(=O)NC(C)c2ccc(O)cc2)cc1 (configuration not stated)	11.1 min
c1ccc(CN2CCN(Cc3ccncc3)CC2)nc1	7.31 min
CCCCCCCCCC(=O)N(C)C	16.6 min
CN1CCC23c4c5ccc(OC6OC(C(=O)O)C(O)C(O)C6O)c4OC2C(O)C=CC3C1C5 (configuration not stated)	6.59 min
CC(NCCc1ccc(O)cc1)C(O)c1ccc(O)cc1 (configuration not stated)	8.48 min
CNc1ccncc1	6.54 min
CCc1nc2ccccc2[nH]1	7.88 min
CC(C)CNC(=O)c1cccc2c1-c1ccccc1C2=O	13.3 min
OCC(CO)(CO)c1ccccn1	4.36 min
CCCCCCCCCCOc1ccc(C(=O)NCCN2Cc3ccccc3C2=O)cc1	20.2 min
Cc1nc2ccccc2c(=O)o1	9.03 min
C1=Nc2ccccc2C(c2cccc3ccccc23)C1c1ccc2ccccc2n1 (configuration not stated)	12.9 min
NC(=O)C1(N2CCCCC2)CCN(C(=O)c2ccccc2)CC1	7.76 min
c1ccc(N=c2scc(-c3ccccc3)n2-c2ccccc2)cc1	12.4 min
COc1cccc2ccc(C)nc12	7.77 min
CC(C)n1c2ccccc2c2ccccc21	18.2 min

Structure (SMILES)	LC retention time
Cc1ccc2c(c1)C1CN(C)CCC1N2C(=O)CN1CCCCC1 (configuration not stated)	7.91 min
NC(=O)c1cc(O)c(O)c(O)c1	2.23 min
Cc1cccc(C)c1NC(=S)NCC(C)NC(=S)Nc1c(C)cccc1C (configuration not stated)	13.9 min
Cn1c2ccccc2c2nc3ccccc3nc21	14.5 min
CN1CCC(OC(=O)Cc2ccccc2)CC1	8.85 min
CCCCCCCCSCCSC(=N)N	12.7 min
Cc1[nH]c2ccccc2c1C=NNC(N)=S	9.71 min
O=C1c2ccccc2C(=O)c2cc(C(=O)N3CCC(c4ccccc4)CC3)ccc21	17 min
O=c1c2n[nH]nc2cnn1-c1ccccc1	8.76 min
O=C(c1cncc(C(=O)N2CCC(Cc3ccccc3)CC2)c1)N1CCC(Cc2ccccc2)CC1	17.1 min
O=C(O)c1cncc(C(=O)O)c1	3.03 min
CN(C)Cc1c[nH]c2ccccc12	7.66 min
CNCc1cccc(C)c1	8.02 min
CCn1c2ccccc2c2cc(C(=O)O)ccc21	13.5 min
Nc1cccc(Nc2ccccc2)c1	9.53 min
NCCCNCCNCCCN	7.73 min
CCCCCCN(C)CCCCCC	11.9 min
CCCCOc1ccccc1N	10.8 min
COc1cc2ccccc2cc1CNc1ccccc1	15.7 min
CCCCCCCCN	10.2 min
O=C(C1c2ccccc2Oc2ccccc21)N1CCCc2ccccc21	17.8 min

The remaining lines, values ahead:

LC retention time	Structure (SMILES)
8.46 min	Cc1ccccc1C(=O)NC1CC(C)(C)NC(C)(C)C1
12.9 min	CCc1ccc2c(c1)c(C=O)c(C)n2C
8.36 min	O=C(O)C1CCCN(CCc2ccccc2)C1 (configuration not stated)
12.3 min	Cc1ccc(C(=O)NCc2ccco2)c(C)c1
12.3 min	O=C1CCCc2c1[nH]c1ccccc21
8.65 min	c1coc(C2NCCc3ccccc32)c1 (configuration not stated)
7.29 min	COc1ccc(C(=O)NCC(=O)NN)cc1OC
6.78 min	CC1=CC(=O)C(C)(C)NC1
13.2 min	S=C1NC2(CCCCC2)NN1c1ccccc1
7.43 min	COc1nc(N2CCCC2)[nH]c(=O)n1
4.24 min	NC1CCOCC1
12.1 min	Cc1ccc(C)n1-c1ccccc1C(=O)O
10.2 min	CC(=O)N1CCc2[nH]c3ccccc3c2C1
8.93 min	Cc1sc(C)c(CNCC(C)C)c1CNCC(C)C
12.5 min	Cc1[nH]c(C)c(C(=O)c2ccccc2)c1C
13.7 min	CCOC(=O)C1=C(C(=O)OC)CN(c2ccccc2)N1
18 min	CCCOC(C)n1cccc1-c1ccccc1 (configuration not stated)
14.9 min	S=C(NC1CCCCC1)NC1CCCCC1
7.12 min	CC1(C)CC(=O)NC(=O)C1
16.2 min	CCOC(=O)c1ccc2[nH]c3c(c2c1)CCCC3C(=O)OCC (configuration not stated)
6.7 min	CC1CNCC(C)N1 (configuration not stated)

LC retention time	Structure (SMILES)
9.33 min	Cc1cccc(-c2nc(=S)[nH][nH]2)c1
9.62 min	CCN(CC)CCNC(=O)c1ccccc1NC(=O)Nc1ccccc1
17.7 min	CC(C)OC(C)n1cccc1-c1ccccc1 (configuration not stated)
8.44 min	CC1(C)CC(=O)C2=C(C1)NCN(Cc1ccccc1)C2
8.38 min	CCCCNCCCC
6.61 min	C1CCCNCC1
17 min	Cc1cccn2cc(-c3cccs3)cc12
13.2 min	CCOC(=O)c1ccc(NC(=O)C2CC(=O)N(C3CCCCC3)C2)cc1 (configuration not stated)
8.19 min	CC(C)(C)C1=CC(=O)CN(C(C)(C)C)C1
6.01 min	CCN(CC)CCCO
12.9 min	COc1ccc(OC)c2c1C(c1cccc(N)c1)OC1CCCCC21 (configuration not stated)
9.64 min	Cc1ccc(NC(=S)NN=C2CCN(C(C)C)CC2)cc1
13.2 min	CC1(C)CC(=O)c2cc3c(nc2C1)CC(C)(C)CC3=O
11.3 min	Cc1ccc(-c2csc(-c3cccnc3)n2)cc1C
9.57 min	CCCCOC(=O)CCc1n[nH]c(=O)[nH]c1=O
9.24 min	Cc1cc2c(s1)Nc1ccccc1N=C2N
7.31 min	CC(C)CNCCN1CCOCC1
7.62 min	Cc1ccccc1N(C)C
6.51 min	CN(C)CCN
8.02 min	CC(=NCCN1CCNCC1)C1=C(O)CC(C)(C)CC1=O
6.5 min	Cn1cnc2c1c(=O)[nH]c(=O)n2C
